Measurements published in the NIST ThermoML archive (doi:10.1021/acs.jced.9b00100).
± gives the expanded uncertainty stated by the source.

How the values were obtained:
[1] = Liquid, Ebulliometric method (Recirculating still)
[2] = refractive index (Na D-line) (dimensionless); details: 293.15 K; 101.33 kPa; Liquid; Standard Abbe refractometry

SMILES | vapor or sublimation pressure ([1]; 342.34 K) [kPa] | vapor or sublimation pressure ([1]; 352.05 K) [kPa] | vapor or sublimation pressure ([1]; 361.65 K) [kPa] | refractive index [2] | vapor or sublimation pressure ([1]; 342.95 K) [kPa] | vapor or sublimation pressure ([1]; 352.65 K) [kPa] | vapor or sublimation pressure ([1]; 362.55 K) [kPa]
CCCO [propan-1-ol] | 31.5 ± 0.29 | 49.5 ± 0.31 | 73.2 ± 0.33 | 1.3848 ± 0.002 | – | – | –
CCCC(C)=O [pentan-2-one] | 32.7 ± 0.34 | 47.8 ± 0.27 | 66.2 ± 0.31 | 1.3893 ± 0.002 | 34.3 ± 0.34 | 48.7 ± 0.27 | 68.1 ± 0.31
CCCCO [butan-1-ol] | – | – | – | 1.3989 ± 0.002 | 13.4 ± 0.24 | 21.4 ± 0.24 | 33.4 ± 0.25
